The subject of data set [1] is HeLa. As to the kind of experiment: MTT cytotoxicity assay, HeLa. As to conditions: Homo sapiens, MTT assay, 50% inhibition of cell growth, read-out: IC50 HeLa. The class given is cell-based. The method, then: (§1) The xanthones 1–11 were tested for cytotoxicity against HeLa, A549, HCT-116, and HepG-2 human cancer cell lines and inhibition on the proliferation of the HUVEC cell line by using the MTT assay according to the described protocols.
Background: Tetrazolium dyes change colour on reduction, which living cells bring about.

Data set [2] deals with A549. Nature of the data set: MTT cytotoxicity assay, A549. Particulars: Homo sapiens, A549; MTT assay; 50% inhibition of cell growth; read-out: IC50 A549. In kind it is cell-based. The method, then: as §1
In data set [3] the test system is HCT-116. Nature of the data set: MTT cytotoxicity assay, HCT-116. The class given is cell-based. As to conditions: Homo sapiens, HCT-116; MTT assay; 50% inhibition of cell growth; read-out: IC50 HCT-116. Here is the method: as §1
For data set [4], the system named is HepG-2. Nature of the data set: MTT cytotoxicity assay, HepG-2. Particulars: Homo sapiens, HepG2; MTT assay; 50% inhibition of cell growth; read-out: IC50 HepG-2. In kind it is cell-based. The method, then:
as §1

Data set [5] deals with HUVEC cell line. Nature of the data set: MTT assay, inhibition of proliferation of HUVEC cell line. In kind it is cell-based. Particulars: Homo sapiens, MTT assay, 50% inhibition of cell growth, read-out: IC50 HUVEC. The method, then: as §1
Data set [6] concerns zebrafish embryos Tg(flk1:EGFP). As to the kind of experiment: Antiangiogenic activity assay on blood vessel formation in zebrafish embryos. In kind it is in vivo, zebrafish (Danio rerio). As to conditions: for Antiangiogenic activity to zebrafish embryos: concentrations varying from 1 μM to 16 μM; for Concentration with inhibitory effect on ISV formation (Figure 2): zebrafish embryos, 24 h, effects of 3, 7, 9 comparable to GA. Here is the method: (§2) A transgenic zebrafish line, Tg(flk1:EGFP), with the endothelial- specific flk1 promoter directing enhanced green fluorescent protein (EGFP) expression in all endothelial cells of the vasculature was used. Adult zebrafish were maintained at 28.5 °C in a recirculating aquaculture system. Zebrafish embryos were generated by natural pair-wise mating, collected in the morning and raised at 28.5 °C in embryo water (0.2 g/L of Instant Ocean Salt in distilled water). At 6 h post-fertilization (hpf), the embryos were sorted for viability and developmental stage (shield stage). The embryos were firstly placed in 24-well plates in 1 mL of embryo water with eight embryos per well. Then, the xanthones, at various concentrations, were added to embryo water of each well from the shield stage (about 6 h). Because the fish embryo receives nourishment from an attached yolk ball for the duration of the experiment, no additional maintenance was required during the duration of the experiments. After treatment with the drugs for 24 h, the embryos were anesthetized with 0.05% 2-phenoxyethanol in embryo water. One to three embryos were placed on carry sheet glass and each embryo was examined for the presence of ectopic vessels in the subintestinal vessel plexus (SIV) as an indication of antiangiogenic effect. Photographs were taken under a fluorescence microscope.

Data set [7] concerns zebrafish embryos. As to the kind of experiment: Death rates of treated zebrafish embryos. Particulars: for Death Rate: eight embryos per well, control 0. The class given is in vivo, zebrafish (Danio rerio). The method, then: as §2
Data set [8] has as its system zebrafish embryos. As to the kind of experiment: Heart rates of treated zebrafish embryos. The class given is in vivo, zebrafish (Danio rerio).
The test system of data set [9] is HUVEC. As to the kind of experiment: HUVEC wound migration assay. As to conditions: 0.5 μM, 24 h. The class given is cell-based, human. The method, then:
The wound migration assay was performed as previously described. HUVECs were seeded at a plating density of 2 × 10^5 per well in 6-well plates which had been coated with 1% gelatin, cells grown in DMEM medium with 10% FBS overnight. After reaching 100% confluence, the cells were then gently scraped with a plastic tip to produce a wound area. After wounding cells were incubated with fresh DMEM medium with xanthones 1, 3, 7 and 9 at a concentration of 0.5 μM, the migration and cell movement throughout the wound area was examined after 24 h.

The structures appear in SMILES notation.

A word on the IC50: it is the concentration that gives 50% inhibition. As for `CC(C)=CCC/C(C)=C/Cc1c(O)c(CC=C(C)C)c2c(c1O)C(=O)C1=C[C@@H]3C[C@H]4C(C)(C)O[C@@](C/C=C(/C)C=O)(C3=O)[C@@]14O2` [Xanthone 7, gambogenin], the IC50 in data set [1] stood at 3.26 µM; in data set [2], 4.88 µM; in data set [3] it was 1.3 µM; in data set [4] it was 6.51 µM; in [5] it was 1.04 µM. In addition, the “Antiangiogenic activity to zebrafish embryos” value in data set [6] was “displayed antiangiogenic activity”. Besides, the “Concentration with inhibitory effect on ISV formation (Figure 2)” value in data set [6] came to 32 µM. For the same compound, the “Death Rate” value in [7] (8 μM) amounted to 0. Besides, the “Heart Rate” value in [8] (Tg(flk1:EGFP), zebrafish, in vivo, 24 h, 8 μM) was 6 per 10 s; in data set [8] (Tg(flk1:EGFP), zebrafish, in vivo, 24 h, 16 μM) it was 6 per 10 s; in [8] (Tg(flk1:EGFP), zebrafish, in vivo, 24 h, 32 μM), 5 per 10 s. Moreover, the “Inhibition of the migration of HUVEC” value in data set [9] is given as “remarkable inhibition”.
With `CC(C)=CCC/C(C)=C/Cc1c(O)c(CC=C(C)C)c2c(c1O)C(=O)C1=C[C@@H]3C[C@H]4C(C)(C)O[C@@](C/C=C(\C)C(=O)O)(C3=O)[C@@]14O2` [Xanthone 9, isogambogenic acid], the IC50 in [1] was determined as 6.35 µM; in [2] it was 12.7 µM; in data set [3], 11.7 µM; in data set [4], 6.35 µM; in data set [5], 1.73 µM. Moreover, the “Antiangiogenic activity to zebrafish embryos” value in data set [6] is “displayed antiangiogenic activity”. Further, in data set [6], the “Concentration with inhibitory effect on ISV formation (Figure 2)” value worked out at 4 µM. Moreover, the “Death Rate” value is listed as 0 in data set [7] (2 μM), 0 in [7] (4 μM) and 8/8 in [7] (8 μM). Besides, the “Concentration that caused the death of all zebrafish embryos” value in [7] (highest concentration tested) was determined as 8 µM. Moreover, the “Heart Rate” value worked out at 8 per 10 s in [8] (2 μM, zebrafish embryos, control 21 per 10 s); 5 per 10 s in [8] (4 μM, zebrafish embryos, control 21 per 10 s); 0 per 10 s in data set [8] (8 μM, zebrafish embryos, control 21 per 10 s). The “Inhibition of the migration of HUVEC” value in data set [9] is “remarkable inhibition”.

The record behind these values is publication PMC6270171, “In Vitro and In Vivo Antiangiogenic Activity of Caged Polyprenylated Xanthones Isolated from Garcinia hanburyi Hook. f” (Molecules, 2013).
